One assay concerns Lassa virus. Briefly: Antiviral activity against LASV infected in human A549 cells. It counts as functional, organism-based, Mammarenavirus lassaense. Conditions: for pIC50: Mammarenavirus lassaense, A549, read-out: IC50; for IC50: a549; call rule not given here.
Assay [1] is described as follows: Inhibition of JUNV envelope glycoprotein-mediated late endosomal pH-dependent membrane fusion by cell-cell fusion reporter assay. Conditions: Mammarenavirus juninense. A general note: In a reporter assay the amount or activity of a reporter protein is the signal.

SMILES strings stand for the structures. pIC50: −log10 of the molar value.

This passage reports IC50 results from ChEMBL document CHEMBL1151924, “Characterization of lassa virus cell entry inhibitors: determination of the active enantiomer by asymmetric synthesis” (Bioorg Med Chem Lett, 2009).

Turning to `COc1ccc(CN2C(=O)CN(C(=O)c3cc4ccccc4[nH]3)CC2Cc2ccccc2)cc1` (configuration not stated), in the assay on Lassa virus, the pIC50 is 5.92. Same read-out and setting: the value for `O=C(c1cc2ccccc2s1)N1CC(=O)N(Cc2ccc(Cl)cc2)C(Cc2ccccc2)C1` (configuration not stated) was 5.68. Regarding `COc1ccc(CN2C(=O)CN(C(=O)c3cc4ccccc4s3)CC2CCc2ccccc2)cc1` (configuration not stated), the pIC50 with Lassa virus is 6.30; in assay [1], 6.70. Take `COc1ccc(CN2C(=O)CN(C(=O)c3cc4ccccc4[nH]3)CC2CCc2ccccc2)cc1` (configuration not stated): in the assay on Lassa virus, the pIC50 was 5.77. For `Cc1ccc(CN2CCN(C(=O)c3cc4ccccc4o3)C[C@@H]2Cc2ccccc2)cc1`, in the assay with Lassa virus, the pIC50 is 5.51. `Cc1ccc(CN2C(=O)CNC[C@@H]2Cc2ccccc2)cc1`: the IC50 entry in the assay on Lassa virus was “Not Active”. Consider `O=C(c1cc2ccccc2o1)N1CC(=O)N(Cc2cccc(C(F)(F)F)c2)C(Cc2ccccc2)C1` (configuration not stated), for which, in the assay on Lassa virus, the pIC50 was 5.74. For `Cc1ccc(CN2C(=O)CN(Cc3cc4ccccc4o3)C[C@@H]2Cc2ccccc2)cc1`, the pIC50 in the assay on Lassa virus is 5.00. The same measure, in the same setting: the value for `CCC1CN(C(=O)c2cc3ccccc3o2)CC(=O)N1Cc1cccc(C(F)(F)F)c1` (configuration not stated) was 5.80; that for `O=C(c1cc2ccccc2o1)N1CC(=O)N(Cc2ccc(Cl)cc2)C(Cc2ccccc2)C1` (configuration not stated) was 6.10. For the compound `O=C(c1cc2ccccc2o1)N1CCN[C@@H](Cc2ccccc2)C1`, in the assay on Lassa virus, the IC50 entry is listed as “Not Active”. For the compound `COc1ccc(CN2C(=O)CN(C(=O)c3cc4ccccc4o3)CC2CCc2ccccc2)cc1` (configuration not stated), the pIC50 is 6.00 with Lassa virus and 6.70 in assay [1]. For the compound `Cc1ccc(CN2C(=O)CN(C(=O)c3ccc(C)cc3)CC2CCc2ccccc2)cc1` (configuration not stated), the pIC50 in the assay with Lassa virus is 5.92. Still for that read-out and setting: as for `COc1ccc(C(=O)N2CC(=O)N(Cc3ccc(C)cc3)C(CCc3ccccc3)C2)cc1` (configuration not stated), the figure is 6.40; as for `Cc1ccc(CN2C(=O)CN(C(=O)c3cc4ccccc4o3)C[C@@H]2Cc2ccccc2)cc1`, 6.70; as for `CCC1CN(C(=O)c2cc3ccccc3[nH]2)CC(=O)N1Cc1cccc(C(F)(F)F)c1` (configuration not stated), 5.62. On the same count and under the same terms, as for `Cc1ccc(CN2C(=O)CN(C(=O)c3cc4ccccc4o3)C[C@H]2Cc2ccccc2)cc1`, the figure is 5.52. Regarding `Cc1ccc(CN2C(=O)CN(C(=O)c3cc4ccccc4o3)CC2Cc2ccccc2)cc1` (racemic), the negative logarithm of the IC50 (pIC50) in the assay with Lassa virus is 6.10; in assay [1], 6.70.

Regarding `COc1ccc(CN2C(=O)CN(C(=O)c3cc4ccccc4o3)CC2Cc2ccccc2)cc1` (configuration not stated), in the assay with Lassa virus, the pIC50 is 6.22.

In general, pIC50 refers to the negative decadic logarithm of the IC50, by convention in mol/L.
